In experiment [1] the test system is Zymosan Stimulated Macrophaqes. Description: Test A: Inhibition of Arachidonic Acid Release from Zymosan Stimulated Macrophages. The experiment is classed as cell-based, mouse (female MF1). The conditions noted are these: inhibition of arachidonic acid release, six concentrations (100, 50, 20, 10, 5 and 1 μM), 5 h with zymosan, read-out: Test A IC50. The method, then: Inhibition of Arachidonic Acid Release from Zymosan Stimulated Macrophaqes
Female MF1 mice (weighing 20 to 25 g) were killed using a rising concentration of CO2. The mice were laid on their backs and the abdomens wiped with 70% alcohol. The skin was pulled back, exposing the peritoneal wall. Medium A (5 ml) (see below) was injected into the peritoneal cavity of each mouse followed by approximately 1 ml of air using a 20 ml syringe and a 21 G×40 mm needle in order to form a suspension of macrophage cells. The medium and cells were then removed using a 19 G×40 mm needle. The resulting suspension was returned to a sterile beaker kept on ice. The extracts from all the mice were pooled and this pooled cell suspension was counted using a Coulter counter and adjusted to a final cell count of 1-1.3×10^6 cells/ml prior to labelling with [^3 H]-arachidonic acid. Typically five mice provided sufficient cells for each multiwell plate.
Sufficient [^3 H]-arachidonic acid in ethanol to give a final concentration of 1.6 μCi/ml (equivalent to 40 μCi/plate) was blown to dryness under nitrogen. The arachidonic acid was then resuspended in 1 or 2 ml of the cell suspension which was then mixed with the remainder of the cell suspension in a centrifuge bottle. The labelled cell suspension was then plated out into sterile plastic 96 flat-bottomed well plates (250 μl per well) and incubated overnight at 37° C. in a moist atmosphere of 5% CO2, 95% air.
The following day, non-adherent cells were removed by washing 3 times with sterile phosphate buffered saline (PBS). The adherent peritoneal macrophages were then cultured for a further 24 hours in the presence or absence of drugs, in medium B (see below) at 37° in a 5% CO2 atmosphere in order to measure the effects of drugs on the spontaneous release of arachidonic acid in the absence of stimulus. After this incubation, supernatants were removed to give media 1 and stored in sealed multi-well plates at 4° C. prior to scintillation counting. Drugs which potentiated spontaneous release of arachidonic acid (125% of controls) were deemed to be toxic at the concentration at which this phenomenon occurred. The supernatants were replaced by fresh medium C containing fresh drug and a stimulus. Three drugs were tested at six concentrations (100, 50, 20, 10, 5 and 1 μM) in replicates of four on each plate. The other wells contained controls consisting of a positive control (e.g. dexamethasone), medium (B) only and medium C only.
Incubation was then continued for a further 5 hours, whereupon the supernatants were collected to give media 2 and the adherent cells washed with PBS. The cells were then lysed with 100 μl of 0.1% TRITON® X100 in a 0.1% solution of bovine serum albumin in 0.9% saline and mechanically disrupted to give cell lysates. These supernatants (media 2) and cell lysates (Cells) were also stored in sealed multi-well plates at 4° C. prior to scintillation counting. 200 μl aliquots of media, or 100 μl aliquots of cells were counted using 2 ml of OPTIPHASE "HIGH SAFE" (Trademark of LKB) as scintillant.
The percentage of arachidonic acid released was calculated using the mean values for each group of 4 wells in the following equation. [formula] cpm=courts per minute
The value for the arachidonic acid release in the absence of stimulus (spontaneous, cpm of media 2) from cells which had been exposed to neither stimulus nor drug was subtracted from all equivalent values (cpm media 2, stimulated with or without drug) to give the net stimulated release. The percentage inhibition of arachidonic acid release caused by a drug may then be calculated using the following equation. [formula]
Compounds of formula I were tested at six concentrations (100, 50, 20, 10, 5 and 1 μM) and IC50 values calculated. Compounds with IC50 values<100 μM are considered to be active. Advantageous compounds have an IC50 value <50 μM.
Medium A (for peritoneal lavage) […]

The subject of experiment [2] is Carrageenan-induced rat paw oedema. Description: Test B: Carrageenan-induced rat paw oedema test. The experiment is classed as in vivo, rat (female). The conditions noted are these: inhibition of paw oedema, 1 h before carrageenan, 3 h after injection; for inhibition in vivo at 100 mg/kg: Rattus norvegicus, po, 3 h; for Test B % inhibition at 100 mg/kg: oral. The method, then: Carrageenan-induced rat paw oedema test
Female rats, weight range 125-150 g were fasted overnight. One of the hind legs of each animal was marked with a line at the connection between the cuboid/navicular and calcaneus/talus bones. Groups of six rats were orally dosed at 10 ml/kg, in random order, with a given dose of the test compound given as a solution or suspension in 10% (w/v) aqueous acacia solution.
One hour after dosing, 0.1 ml of 1% (w/v) sterile carrageenan λ in normal saline was injected deeply into the plantar surface of the marked hind foot of each rat. The volume of the foot (up to the marked line) was measured immediately after injection using duplicate water displacement readings. Three hours after injection the foot volume was measured again and the percentage increase in foot volume relative to the initial reading was calculated.
The increase in foot volume (i.e. the degree of oedema) in drug treated animals when compared with that in the drug untreated control gave the degree of inhibition of paw oedema by the drug.
Compounds were considered to be active in this test if they produced a 20% or greater inhibition of paw oedema in at least two out of three tests after oral dosing at 100 mg/kg. Statistical significance was assessed using the Student't test for single dose studies and Dunnett's test for multiple dose studies. More advantageous compounds were active in both Tests A and B,
On the technique in general: Carrageenan injected into the paw causes an acute inflammation.

Where a name gives a salt, the structure may show the parent alone. Read-outs that look alike come from different tables or passages of the source.

As a reminder, the IC50 is the concentration that gives 50% inhibition. In general, inhibition in vivo refers to the relative decrease from the control value, in per cent. Read a high inhibition in vivo as a response far below the control.

For `CCCCOc1ccc(C(C)NCCCn2ccnc2)cc1` (stereo not drawn) [Example 22, N-[1-(4-Butoxyphenyl)ethyl]-3-(imidazol-1-yl)propylamine dioxalate], in experiment [1] (Mus musculus, Macrophage, 5 h), the concentration for half-maximal inhibition (IC50) turned out to be 21 µM. Moreover, at 100 mg/kg the inhibition in vivo in experiment [2] was 17%.
Regarding `CC(NCCCn1ccnc1)c1ccc(Cl)c(C(F)(F)F)c1` (stereo not drawn) [Example 9, N-[1-(4-Chloro-3-trifluoromethylphenyl)ethyl]-3-(imidazol-1-yl)propylamine], the IC50 in experiment [1] (Mus musculus, Macrophage, 5 h) came out at 22 µM. Moreover, at 100 mg/kg the inhibition in vivo in experiment [2] was 78%.
For `CC(NCCCn1ccnc1)c1ccc(Cl)cc1.Cl.Cl` (single isomer, unassigned; (-)) [Example 57, (-)N-[1-(4-Chlorophenyl)ethyl]-3-(imidazol-1-yl)propylamine dihydrochloride], the IC50 in experiment [1] (dihydrochloride) turned out to be 20 µM. Further, in experiment [2] (dihydrochloride), the “Test B % inhibition at 100 mg/kg” value turned out to be 48%.
Take `Cc1ncn(CCCNC(C)(C)c2ccc(Cl)cc2)c1C` [Example 70, N-[1-(4-Chlorophenyl)-1-methylethyl]-3-(4,5-dimethylimidazol-1-yl)propylamine]: in experiment [1] (Mus musculus, Macrophage, 5 h), the IC50 stood at 11 µM. Also, testing at 100 mg/kg in experiment [2] gave an inhibition in vivo of 21%.
`COc1cc(C)c(CNCCCn2ccnc2)c(C)c1` [Example 50, 3-(imidazol-1-yl)-N-(4-methoxy-2,6-dimethylbenzyl)propylamine dihydrochloride]: the IC50 in experiment [1] (Mus musculus, Macrophage, 5 h) stood at 31 µM. Besides, in experiment [2], at 100 mg/kg the inhibition in vivo was 0%.
As to `c1ccc(Oc2ccc(CNCCCn3ccnc3)cc2)cc1` [Example 39, 3-(Imidazol-1-yl)-N-(4-phenoxybenzyl)propylamine], in experiment [1] (Mus musculus, Macrophage, 5 h), the half-maximal inhibitory concentration (IC50) was 10 µM. In experiment [2], this compound registered an inhibition in vivo at 100 mg/kg of 35%.
Taken in the same sequence, the figures for `CC(NCCCn1ccnc1)c1ccc(C(C)(C)C)cc1` (stereo not drawn) [Example 19, N-[1-(4-Tert-butylphenyl)ethyl]-3-(imidazol-1-yl)propylamine] were 12 µM and 27%.
Consider `CCC(c1ccc(Cl)cc1)N(C)CCCn1ccnc1` (stereo not drawn) [Example 91, N-[1-(4-chlorophenyl)propyl]-3-(imidazol-1-yl)-N-methylpropylamine], for which the IC50 in experiment [1] (Mus musculus, Macrophage, 5 h) is 62 µM. For the same compound, the inhibition in vivo at 100 mg/kg in experiment [2] was 58%.
Taken in the same sequence, the figures for `CCOC(=O)C=Cc1ccc(CNCCCn2ccnc2C)cc1` [Example 51, ethyl 4-[3-(2-methylimidazol-1-yl)propylaminomethyl]cinnamate dihydrochloride] were 20 µM and 1%.
For `CC(NCCCn1ccnc1)c1ccc(Cl)cc1` (single isomer, unassigned; (-)) [Example 92, (-) N-[1-(4-chlorophenyl)ethyl]-3-(imidazol-1-yl)propylamine (-)-ditartrate], in experiment [1], the IC50 is 20 µM. The “Test B % inhibition at 100 mg/kg” value in experiment [2] stood at 48%.
On to `Cc1nccn1CCCNCc1ccc(Cl)cc1` [Example 43, N-(4-Chlorobenzyl)-3-(2-methylimidazol-1-yl)propylamine], for which, in experiment [1] (Mus musculus, Macrophage, 5 h), the IC50 was 49 µM. In experiment [2], this compound showed an inhibition in vivo at 100 mg/kg of 33%.
Regarding `Cc1nc(C)n(CCCNC(C)c2ccc(Cl)cc2)c1C` (stereo not drawn) [Example 66, N-[1-(4-Chlorophenyl)ethyl]-3-(2,4,5-trimethylimidazol-1-yl)propylamine], in experiment [1] (Mus musculus, Macrophage, 5 h), the IC50 was 13 µM. In experiment [2], this compound showed an inhibition in vivo at 100 mg/kg of 13%.
Taken in the same sequence, the figures for `CC(C)(NCCCCn1ccnc1)c1ccc(Cl)cc1` [Example 89, N-[1-(4-chlorophenyl)-1-methylethyl]-4-(imidazol-1-yl)butylamine] were 40 µM and 51%.
Taken in the same sequence, the figures for `CC(C)c1nccn1CCCNCc1ccc(Cl)cc1` [Example 71, N-(4-Chlorobenzyl)-3-(2-isopropylimidazol-1-yl)propylamine-dihydrochloride] were 25 µM and 10%.
The matching figures for `CC(NCCCn1ccnc1)c1ccccc1Cl` (stereo not drawn) [Example 8, N-[1-(2-Chlorophenyl)ethyl]-3-(imidazol-1-yl)propylamine]: 92 µM and 55%.
Regarding `CC(C)(NCCCn1cncc1CO)c1ccc(Cl)c(Cl)c1` [Example 84, 1-{3-[1-(3,4-Dichlorophenyl)-1-methylethylamino]propyl}imidazol-5-ylmethanol], the IC50 in experiment [1] (Mus musculus, Macrophage, 5 h) came out at 24 µM. Besides, in experiment [2], testing at 100 mg/kg gave an inhibition in vivo of 19%.
The matching figures for `Cc1cn(CCCNC(C)c2ccc(Cl)cc2)c(-c2ccccc2)n1` (stereo not drawn) [Example 33, N-[1-(4-chlorophenyl)ethyl]-3-(4-methyl-2-phenyl-imidazol-1-yl)propylamine]: 10 µM and 2%.
In the case of `Cc1cn(CCCNCc2ccc(Cl)cc2)cn1` [Example 44, N-(4-Chlorobenzyl)-3-(4-methylimidazol-1-yl)propylamine dihydrochloride], the IC50 in experiment [1] (Mus musculus, Macrophage, 5 h) is 30 µM. For the same compound, at 100 mg/kg the inhibition in vivo in experiment [2] was 8%.
The matching figures for `CC(NCCCn1cnc(Cl)c1Cl)c1ccc(Cl)cc1` (stereo not drawn) [Example 67, N-[1-(4-Chlorophenyl)ethyl]-3-(4,5-dichloroimidazol-1-yl)propylaminesesquihydrochloride]: 18 µM and 42%.
Taken in the same sequence, the figures for `COC(=O)c1ccc(CNCCCn2ccnc2C)cc1` [Example 49, methyl 4-[3-(2-methylimidazol-1-yl)propylaminomethyl]benzoate] were 45 µM and 0%.
Taken in the same sequence, the figures for `Cc1cc(Cl)ccc1CNCCCn1ccnc1` [Example 40, N-(4-Chloro-2-methylbenzyl)-3-(imidazol-1-yl)propylamine dihydrochloride] were 50 µM and 31%.
In the case of `Clc1ccc(C(NCCCn2ccnc2)c2ccccc2)cc1` (stereo not drawn) [Example 28, N-[α-(4-chlorophenyl)benzyl]-3-(imidazol-1-yl)propylamine], in experiment [1] (Mus musculus, Macrophage, 5 h), the IC50 worked out at 11 µM. This compound yielded an inhibition in vivo at 100 mg/kg in experiment [2] of 48%.
Taken in the same sequence, the figures for `CC(=O)OCc1ncn(CCCNC(C)(C)c2ccc(Cl)cc2)c1C` [Example 98, 1-{3-[1-(4-chlorophenyl)-1-methylethylamino]propyl}-5-methylimidazol-4-ylmethyl acetate dihydrochloride] were 45 µM and 4%.
The matching figures for `Cc1cn(CCCNC(C)c2ccc(Cl)cc2)c(C)n1` (stereo not drawn) [Example 31, N-[1-(4-chlorophenyl)ethyl]-3-(2,4-dimethylimidazol-1-yl)propylamine dihydrochloride]: 10 µM and 25%.

These data come from patent publication US5547972A, “Therapeutic agents useful for treating inflammatory diseases” (The Boots Company PLC, priority 1991, dated 1996).
